{"source": "patent US8703451B2", "about": "“Method for the production of free carboxylic acids” (priority 2008, dated 2014)", "key": {"[1]": {"system": "Ralstonia eutropha PHB-4 (reclassified as Cupriavidus necator, DSMZ 541)", "assay_type": "cell-based", "details": "0.5%, 1%, 5% and 10% (w/v) TOA; over a period of 20 hours (fermentation time 46-65 hours)", "experimental": "Biocompatibility of TOA (trioctylamine) with Ralstonia eutropha Cultures of Ralstonia eutropha PHB-4 (reclassified as Cupriavidus necator, DSMZ 541) transformed with the plasmid: pBBR1MCS-2::icmA-icmB with SEQ ID No. 1 were fermented on a 400 ml scale in a standard medium for 46 hours to an OD (optical density at 600 nm) of ca. 30, which corresponds to a CFU (colony formed units) of 1×10^11 per ml, under standard conditions (30° C.; pH 6.8; rpm 250-750; pO2 20%).\nAfter a fermentation time of 48 hours, 0.5%, 1%, 5% and 10% (w/v) trioctylamine (TOA) were added under sterile conditions. After a further 6 and 20 hours the CFU were determined.\nTo ascertain the CFU, dilution series of the broths were prepared. The dilutions were plated out onto agar plates and incubated for 24 hours at 30° C.\nThe values are summarized in the table below, the CFU values are standardized to 1 ml of fermentation broth."}, "[2]": {"system": "Ralstonia eutropha PHB-4 (reclassified as Cupriavidus necator, DSMZ 541)", "assay_type": "cell-based", "details": "1, 5 and 10% (w/v) TOA; shake flasks, 24 h, 30° C., 140 rpm", "experimental": "2-Hydroxyisobutyric-acid-producing Ralstonia eutropha PHB-4 (reclassified as Cupriavidus necator, DSMZ 541), which have been transformed with the plasmid pBBR1MCS-2::icmA-icmB, SEQ ID No. 1, were grown as two 50 ml cultures in a shaking incubator under standard conditions (30° C., 140 rpm, 20 h) in LB medium.\nFrom this, for the biomass production, 5×10 ml were inoculated over into 40 ml of modified mineral salt medium (in accordance with Schlegel et al., 1961) and incubated for 10 h under standard conditions\nThe biomass cultures were centrifuged off and resuspended in 10 ml of modified mineral salt medium.\nUsing the resuspensions, 5 flasks of a Ramos shaking incubator (Respiration Activity Monitoring System) were inoculated. The flasks were filled with modified mineral salt medium (addition of 1 g/l of yeast extract and 15 g/l of fructose) with vitamin B12 (60 mg/l). 3 flasks additionally comprised 1, 5 and 10% (w/v) of trioctylamine (TOA).\nThe flasks were incubated for 24 h under standard conditions (30° C., 140 rpm).\nAfter 0, 15 and 24 hours, samples were taken and CFU (OD), pH, and 2HIB concentration in the broth were determined.\nFor the CFU determination, dilution series of the broths were prepared. The dilutions were plated out onto LB agar plates with 300 mg/l of Kanamycin and incubated for 24 h at 30° C. A 4-fold determination of the dilutions 10^−8 and 10^−9 was carried out."}}}
{"smiles": "CCCCCCCCN(CCCCCCCC)CCCCCCCC", "note": "[TOA, trioctylamine]", "values": [{"measurement": "Change of CFU in the presence of TOA", "setting": "[1]", "result": "increased further"}, {"measurement": "Influence on cell growth (CFU, FIG. 1)", "setting": "[2]", "result": "not influenced"}]}
